From PubChem BioAssay AID179 (DTP/NCI, 2004)
“And” between values parts separate entries of the source, which are not always exact repeats. Equal values may be shown once. The source made the active and inactive calls.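 How the source made its calls: active means compounds giving half or more protection of infected cells from virus-caused growth loss, again on retest; inactive means the rest.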

Tested on: CEM cells HIV-1 protection, formazan growth assay
Test: NCI AIDS Antiviral Assay
Settings: for IC50: measured here: growth of uninfected CEM cells
Outline: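 CEM (human) cells, HIV-1 infected vs uninfected, 5-point dosing, formazan growth read-out. Retest threshold 50% protection.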

| Compound | EC50 [µM] | IC50 | outcome |
| --- | --- | --- | --- |
| CCOC(=O)N1CCN(Cc2cc(=O)n3cc(C)ccc3n2)CC1 | > 200 | > 200 µM |  |
| Cn1nc(-c2ccccc2)c(C(=O)/C=C/c2ccccc2)c(N2CCOCC2)c1=O | > 79.4 | > 79.4 µM |  |
| CCCCCC(/C=C/[C@@H]1CC(=O)C[C@H]1O[Si](C)(C)C(C)(C)C)OCOCCOC (some centres undefined) | 5.75 | 7.59 µM |  |
| N#C/C(=C\c1cccs1)c1ccccc1 | > 200 | 117 µM |  |
| O=C1Oc2ccccc2C(=O)/C1=C/N1C(=O)/C(=C/c2ccc3c(c2)OCO3)SC1=S | > 200 | 20.4 µM |  |
| CC(=O)OCC(c1ccccc1)N1C(=O)C(OC(C)=O)[C@H](OC(C)=O)C1=O (some centres undefined) | > 661 | > 661 µM |  |
| Cc1cc(O)c(C=O)c2c1C(=O)Oc1c(CO)c(O)c3c(c1O2)C(O)OC3=O (centres undefined) | > 57.5 | > 57.5 µM |  |
| COc1ccc(-c2cc(=O)c3c(O)cc(C)cc3o2)cc1OC | > 200 | > 200 µM |  |
| O=C(Nc1ccc(Cl)c(Cl)c1)C(=O)C(C(=O)c1ccccc1-c1ccccc1)C1OC(=O)c2ccccc21 (centres undefined) | > 66.1 | 29.5 µM |  |
| CCOC(=O)C(/C=N\C(=S)Nc1ccc(OCC)cc1)=C(/O)c1ccccc1 | > 200 | > 200 µM |  |
| O=S(=O)(OCCSS(=O)(=O)c1ccccc1)c1ccccc1 | > 437 | > 437 µM |  |
| CN(C)c1nc(=NCc2cccnc2)ss1 | > 200 | 11.5 µM |  |
| O=C1c2n[nH]nc2C(=O)c2n[nH]nc21 | > 200 | > 200 µM |  |
| O=S1(c2ccccc2)=NC(=S)Nc2ccccc21 (centres undefined) | 17.4 | > 200 µM |  |
| Nc1c(-c2nc3ccccc3s2)c2ccc([N+](=O)[O-])cc2c(=O)n1-c1cccc(C(=O)O)c1 | 7.76 | 37.2 µM |  |
| COc1ccc(N2C(=O)[C@@H](N=[N+]=[N-])[C@@H]2[C@H]2COC(C)(C)O2)cc1 | > 407 | > 407 µM |  |
| Cc1c(-c2nnc(-c3ccc(Cl)cc3)o2)c(=O)n(-c2ccccc2)n1C | > 200 | > 200 µM |  |
| Cc1cccc(C(C)(C)C)c1NC(=O)C(=O)C(c1cnc2ccccc2n1)[N+](=O)[O-] (centres undefined) | > 324 | 120 µM |  |
| C=C1CN(S(=O)(=O)c2ccc(C)cc2)CCCN(C(C)C)CCCN(S(=O)(=O)c2ccc(C)cc2)C1 | > 200 | 6.31 µM |  |
| CSc1sc(=S)sc1C(=O)N(C)c1ccccc1 | > 200 | > 200 µM |  |
| COc1cc(N(CCC#N)CCC#N)ccc1/C(N=Nc1ccccc1)=N/NC(=O)c1cc(Br)ccc1O | > 100 | 17.8 µM |  |
| COc1ccc(C2CC(=O)c3c(O)cc(OC4OC(CO)C(O)C(O)C4OC4OC(C)C(O)C(O)C4O)cc3O2)cc1O (centres undefined) | > 200 | > 200 µM |  |
| COC(=O)c1cc(C)ccc1C1CN=NC12Cc1c(C)cc(C)cc1C2=O (centres undefined) | > 200 | 29.5 µM |  |
| C/C(CC(=O)NCCc1ccccc1)=N\NC(=O)C[n+]1ccccc1 | > 95.5 | > 95.5 µM |  |

| Compound | EC50 [µM] | IC50 | outcome |
| --- | --- | --- | --- |
| C/C(=N\NS(=O)(=O)c1ccccc1)c1ccc[n+]([O-])n1 |  |  | inactive |
| C=C(CCC/C(C)=C/C=C/[C@]1(C)CCCc2ccoc21)CC(=O)O | 16.2 | > 200 µM |  |
| CC(C)NC(=O)OCc1nnn2c1CCC2 |  |  | inactive |
| CCOCCN(CCOCC)C(=O)c1ccc2c(c1)no[n+]2[O-] | > 200 | 135 µM |  |
| CC1(C)CC(N2CCN(C3CC(C)(C)NC(C)(C)C3)CC2)CC(C)(C)N1 | > 339 | > 339 µM |  |
| CCOC(=O)/C(C#N)=C/c1cccc(C)c1 | > 120 | > 120 µM |  |
| C/C(=N\NC(=O)N/N=C(\C)c1ccccn1)c1ccccn1 | > 2 | 0.0339 µM |  |
| C=C(Nc1nc2ccc(C)cc2s1)C(=O)C(CC)C(=O)C(CC)CC1C(=O)NC(=O)NC1=O (centres undefined) | > 39.8 | > 39.8 µM |  |
| CCC/C=C/C=C/C(=O)OC1C(C)C2(O)C3C=C(C)C(=O)C3CC(COC(C)=O)=CC2C2C(C)(C)C12OC(=O)C(C)C (centres undefined) | 0.977 | 1.02 µM |  |
| CC(C)N1C(C)[C@@H](c2ccccc2)O[P@@]1(=O)CC1=CCCCC1 (some centres undefined) |  |  | inactive |
| CCCCCC1=CC2C(=O)NC(=O)NC12 (centres undefined) | > 47.9 | > 47.9 µM |  |
| N#Cc1c(O)c(/C=N/c2ncccn2)c(=O)n2c1[nH]c1ccccc12 | > 200 | > 200 µM |  |
| COC1/C=C\C=C(/C)C(=O)Nc2cc3nc4ccc(Br)cc4oc-3c(c2=O)CC(C)CC(OC)C(O)C(C)/C=C(\C)C1OC(N)=O (centres undefined) | > 0.2 | 0.0115 µM |  |
| CCC1=C(C)c2cc3[n-]c(cc4nc(cc5[n-]c(cc1n2)c(C)c5CCC(=O)OC)C(CCC(=O)OC)=C4C)c(C)c3CC.[Cu+2] |  |  | inactive |
| COC(=O)[C@@H]1CN(C(=O)CCc2ccccc2)C(=O)N1C(=O)OCc1ccccc1 | > 200 | 97.7 µM |  |
| O=[N+]([O-])c1cccc(S(=O)(=O)OCn2ncc3ccc([N+](=O)[O-])cc32)c1 | > 200 | 151 µM |  |
| CC1(C)CN=C(Nc2cccc(C(F)(F)F)c2)S1 | > 200 | 41.7 µM |  |
| O=C1C(=O)c2ccccc2C(O)=C1CCCCCCCCC1CCCCC1 | > 200 | 12 µM |  |
| N#CCc1nc(-c2cc3ccccc3oc2=O)cs1 | > 200 | 38 µM |  |
| COc1ccc(CNc2cnc3ccc(N)cc3n2)cc1 | > 129 | 77.6 µM |  |
| CCOC(=O)/C=C/c1cccc(F)c1 | > 200 | > 200 µM |  |
| Cc1ccccc1NC(=O)CC(=O)n1nc(-c2ccccc2)c(N=Nc2ccc([N+](=O)[O-])cc2)c1-c1ccccc1 | > 25.1 | 16.2 µM |  |
| Cn1cc(C=O)c2nccnc21 | > 1050 | > 1050 µM |  |
| CCOC(=O)c1cn2ccccc2c(C(C)=O)c1=N | > 200 | 166 µM |  |

| Compound | EC50 [µM] | IC50 | outcome |
| --- | --- | --- | --- |
| CC(C)C1=C(Cc2ccccc2)C(=O)O/C1=C\c1cc(Cl)c(O)c(Cl)c1 | > 200 | 32.4 µM |  |
| CCc1c(C)[nH]c2c1/C(=N/N=C1\CCCc3[nH]c(C)c(CC)c31)CCC2 |  |  | inactive |
| O=C1CCC[C@]2(CCC[C@@H](O)C2)N1 | > 200 | > 200 µM |  |
| COc1ccc(/C(=N/NC(=O)NN)C(c2ccc(OC)cc2)C2(O)CNc3c(Cl)cc(Cl)cc32)cc1 (centres undefined) | > 9.77 | > 9.77 µM |  |
| O=c1ssc(=Nc2ccccc2)n1-c1ccccc1 | > 200 | 67.6 µM and 56.2 µM |  |
| C=C(C)CNC1=C(C)C(=O)C2=C(C1=O)[C@H](COC(N)=O)[C@]1(OC)[C@@H]3N[C@@H]3CN21 | > 200 | 14.5 µM |  |
| Cc1ncc(CO)c(CO)c1OCC(O)CN1CCN(C(=O)c2ccccc2)CC1 (centres undefined) | > 200 | > 200 µM |  |
| CC(C)[Si](OC1=C(C(=O)N(C)c2cccc(Cl)c2)CCCC1)(C(C)C)C(C)C | > 200 | 9.77 µM |  |
| C/C(=N\Nc1ccccc1Br)c1cccc(/C(C)=N/Nc2ccccc2Br)n1 | > 100 | 85.1 µM |  |
| c1ccc(C2CN=C(c3ccccn3)C(c3ccccn3)=N2)cc1 (centres undefined) | > 60.3 | > 60.3 µM |  |
| O=C1CCCCCCCCCCC1CN1CCOCC1 (centres undefined) | > 72.4 | > 72.4 µM |  |
| COC(=O)/C=C/c1cc(=O)n2c(nc3ccccc32)s1 | > 200 | > 200 µM |  |
| O=NN1CCCS1(=O)=O | > 200 | > 200 µM |  |
| CSc1nc(Cl)c2c(n1)Sc1nc3cc4c(cc3n1C2O)OCCO4 (centres undefined) | > 0.2 | 0.0794 µM |  |
| O=c1oc2ccccc2c(O)c1C(c1ccc(C(c2c(O)c3ccccc3oc2=O)c2c(O)c3ccccc3oc2=O)cc1)c1c(O)c2ccccc2oc1=O | > 200 | 50.1 µM |  |
| Nc1nc(Cl)cc(NC2(CO)CCC2)n1 | > 200 | > 200 µM |  |
| Nc1cc2cccc[n+]2c2cc(Cl)ccc12 | > 20 | 1.86 µM |  |
| CC1(C)S[C@H](CN)N[C@H]1C(=O)OC(c1ccccc1)c1ccccc1 | > 200 | 60.3 µM |  |
| COC(=O)C(C(=O)C(=O)Nc1ccc([N+](=O)[O-])cc1[N+](=O)[O-])c1nc2ccc(Cl)cc2[nH]c1=O (centres undefined) | > 74.1 | 66.1 µM |  |
| CC(OC1C(N)C(O)OC(CO)C1O)C(=O)O (centres undefined) |  |  | inactive |
| Cc1ccc(C)n1-n1c(-c2ccccc2)n[nH]c1=O | > 200 | 89.1 µM |  |
| CCOC(=O)C(NC(=O)CC)(Nc1ccccc1OC)C(F)(F)F (centres undefined) | > 200 | > 200 µM |  |
